In patent US20130059778A1, “Identification of a Genetic Risk Factor for Diabetes” (priority 2010, published 2013):

Columns and labels:
[1] = tested on: wild type rat islets; test: Insulin secretion assay, rat islets treated with adenovirus (siRNA knockdown / rescue); format: cell-based; settings: adenoviral delivery to knockdown islets; p=0.03, n=6
Procedure: INS-1-derived cell line 823/3 was cultured as described previously (28). Small interfering RNA (siRNA) sequences corresponding to rat ankyrin-B siRNA1: GGCCAGAAGATCTCAAGGA (SEQ ID NO:2), siRNA2: GCTGTGTAGCATTTTAACA (SEQ ID NO:3), or a control siRNA which is siRNA 1 mutated at three base sites: GGCCCGAAGAGCTCAAGGA (SEQ ID NO:4), were cloned into vector EHOO6 and used for construction of Ad-ankB siRNA recombinant adenoviruses by the methods described (29). Complementary DNAs encoding human ankyrin-B or ankyrin-B W/W (7, 8) were used to prepare recombinant adenoviruses (AdCMV-h ankB and h ankB RAN) using the AdEasy system (Stratagene catalog number 240010). An adenovirus containing the green fluorescent protein (GFP) gene (AdCMV-_GFP) was used as a control. Purified viruses were incubated with INS-1 823/3 cells or islets at multiplicities of infection (MOI) of 20-50 for 18 h. Assays were undertaken 72 h later.
Islets were isolated from ankB littermates and male Wistar rats by pancreatic perifusion as previously described (28). […] Insulin secretion was then measured by using static incubation for a 1 h period in HBSS containing 3 mM glucose. […] Static incubation samples and extract samples were analyzed for insulin concentrations via radioimmunoassay with the insulin Coat-a-Count kit (Diagnostic Products, Los Angeles). […]

[2] = tested on: islets isolated from ankB (+/+) and (+/−) mice; test: Insulin secretion assay, islets from ankB(+/+) and (+/−) mice; format: cell-based, mouse; settings: for potentiation of glucose-stimulated insulin release: Glp-1 100 nM
Procedure: Islets were isolated from ankB littermates and male Wistar rats by pancreatic perifusion as previously described (28). Islets were maintained in culture medium containing 11 mM glucose until the day of the assay. Insulin secretion was assayed in HEPES balanced salt solution (HBSS) (114 mM NaCl, 4.7 mM KCl, 1.2 mM KH2PO4, 1.16 mM MgSO4, 20 mM HEPES, 2.5 mM CaCl2, 25.5 mM NaHCO3, and 0.2% BSA, pH 7.2). Islets were pre-incubated HBSS containing 3 mM glucose for 2 hours. Insulin secretion was then measured by using static incubation for a 1 h period in HBSS containing 3 mM glucose. Islets were then transferred to HBSS containing 16.7 or 8 mM glucose for 1 hour, and then HBSS containing 16.7 or 8 mM glucose plus 0.1 mM carbachol or 100 nM Glp-1 for 1 hour. Following the incubations, islet samples were normalized for insulin content by extraction with 1 M acetic acid in 0.1% BSA. Static incubation samples and extract samples were analyzed for insulin concentrations via radioimmunoassay with the insulin Coat-a-Count kit (Diagnostic Products, Los Angeles). Values presented represent the mean values+/−SEM.

[3] = tested on: islets from ankB(+/+) and (+/−) mice; test: Intraislet calcium measurements using Fura-2; format: cell-based, mouse
Procedure: Islets from 8-10 month ankB(+/+) and (+/−) mice were isolated as described above and incubated overnight in medium containing 11 mM glucose. […] Islets were incubated 45 min at 37° C. Islets were then affixed to small open perifusion chamber (volume 150 μL) with a coverslip bottom using Puramatrix Peptide Hydrigel (BD Biosciences). Chamber was then mounted on a Zeiss Axiovert epifluorescence inverted microscope fitted with a Plan-Neofluar 16x/0.50 objective. The fluorescence (excitation at 355 or 380 nm) was recorded by a slow-scan charged-coupled device (CCD) camera (Andor Technology) and quantitated using AndorIQ software. All perifusions were performed at 37° C. using perfusion buffer containing either 3 mM glucose, 11 mM glucose, 30 mM KCl in 3 mM glucose, or 0.1 mM carbachol in 3 mM glucose. To assay carbachol effects in the absence of calcium, buffer containing 2 mM EGTA and 0 mM Ca^2+ was used. Data represent the mean+/−SEM of 3-7 individual islet recordings/animal using 6 animals/genotype. Significance was calculated using two-tailed T test.

With “full-length human ankyrin-B: full length 220 kD human ankyrin-B, siRNA-resistant, expressed from adenovirus” the “rescue of impaired carbachol-mediated insulin release” value [1] was −40%.

For glucagon-like peptide 1 [Glp-1], the “potentiation of glucose-stimulated insulin release” value ([2]; ankB(+/−) islets, p=0.01, n=6) was 2.1 fold and the “potentiation of glucose-stimulated insulin release” value ([2]; wild type animals) was ~1.6 fold.

With `C[N+](C)(C)CCOC(N)=O` [carbachol] the “reduction in Ca2+ release” value ([3]; ankB(+/−) islets, carbachol 0.1 mM in buffer containing 5 mM Ca2+) was 64%, the “reduction in intracellular Ca2+ release” value ([3]; ankB(+/−) vs ankB(+/+) islets, Ca2+-free buffer containing carbachol 0.1 mM) was ~79% and the “reduction in carbachol-stimulated insulin release” value ([2]; ankB(+/−) islets vs ankB(+/+), carbachol 0.1 mM, p=0.007, n=6) was 40%. The “potentiation of insulin release by carbachol” value ([2]; wild type islets, stimulatory glucose plus carbachol 0.1 mM) was 2.1 fold.
